Measured values published in patent US5536740A, “Skin care compositions containing dimethyl imidazolidinone and retinol or retinyl ester” (priority 1995, dated 1996).
Entries after “also recorded” stand apart in the source; their conditions may differ. Where two headings read alike, the source gives them in different places.

Experiments:
Human keratinocytes = experiment: 3H-thymidine incorporation assay of keratinocyte proliferation; type: cell-based; details: for mean Thymidine incorp./μg protein ± s.d / activity at 0.25 µM / activity at 0.025 µM / activity at 0.0025 µM / mean Thymidine incorp/μg protein ± s.d: 24 hours
Procedure: (§1) Human keratinocytes, isolated from neonatal foreskin by trypsin treatment were grown in Dulbecco Modification Eagle (DME) Hams F12 (1:1) medium/10% fetal calf serum in the presence of irradiated 3T3 mouse fibroblasts for establishing dividing keratinocyte colonies. Cells were grown under the above condition until their second passage and kept frozen for future use. […] On day 7, when the cells were 80-90% confluent, they were trypsinized and plated in the serum-free medium for the various experiments.
^3 H-Thymidine Incorporation and Keratinocyte Proliferation
The incorporation of ^3 H-thymidine by cultured keratinocytes was used as an assay of keratinocyte proliferation. Thymidine is one of four deoxynucleosides which are the monomeric units of DNA, the universal library of genetic information in the animal kingdom. Prior to cell division of a somatic cell such as a keratinocyte, the complete genome of the cell undergoing cell division is replicated. This involves large scale DNA synthesis by the cell and enables both daughter cells to receive identical copies of the genetic material. When ^3 H-thymidine is included in the culture media of keratinocytes which are synthesizing DNA in preparation for cell division then the labelled nucleoside is incorporated into the newly synthesized DNA. The extent of incorporation of ^3 -thymidine into a population of cells is proportional to the rate of DNA synthesis by this population of cells and therefore an indication of their cellular proliferation.
Keratinocytes (that were cultured as described above) were plated in 24 well plates at a density of 40,000 cells per well in 1 ml media. After incubation for four days or until the cells were 60-70% confluent, the media was changed. Test compounds were added (in triplicate) to the wells 24 hours after the media change, and four hours later 1 μCi^3 H-Thymidine in 50 μl media was added per well. Cells were incubated for a further 24 hours. Media was removed from the cells, 10% ice cold trichloroacetic acid (TCA) added and plates were incubated on ice for 30 minutes. Cells were washed five times with 5% TCA and allowed to dissolve in 500 μl 0.1M NaOH for at least one hour (usually overnight). The preparations were neutralized with 0.1M HCl; 50 μl of the cell preparation was used to determine total protein content. Disintegrations per minute (DPM) from a H labelling of DNA was determined by liquid scintillation counting of 900 μl of the cell preparation. Thymidine incorporation results were expressed as DPM/μg protein.

[1] = tested on: TGase I in human keratinocytes; experiment: ELISA based transglutaminase I (TGase I) assay of keratinocyte differentiation; type: cell-based
Procedure: as §1
Transglutaminase Assay and Keratinocyte Differentiation
During the process of terminal differentiation in the epidermis, a 15 nm thick layer of protein, known as the cornified envelope (CE) is formed on the inner surface of the cell periphery. The CE is composed of numerous distinct proteins which have been cross-linked together by the formation of N^ε -(γ-glutamyl)lysine isodipeptide bonds catalyzed by the action of at least two different transglutaminases (TGases) expressed in the epidermis. TGase 1 is expressed in abundance in the differentiated layers of the epidermis, especially the granular layer, but is absent in the undifferentiated basal epidermis. Thus TGase I is a useful marker of epidermal keratinocyte differentiation with high TGase I levels indicating a more differentiated state. An ELISA based TGase I assay, using a TGase I antibody, was used to assess the state of differentiation of the cultured keratinocytes in the examples that follow.
Keratinocytes (cultured as described above) were plated in 96 well plates at a density of 3,000 cells per well in 200 μl media. After incubation for four days the media was changed to media containing test compounds (six replicates per test). The cells were cultured for a further 72 hours after which time the media was aspirated and the plates stored at -70° C. Plates were removed from the freezer, and the cells washed with PBS. 100 μl sterile water was added and the cells were freeze fractured by freezing at -70° C. then thawing. The cells were incubated for one hour at room temperature (R/T) with PBS/3% BSA (wash buffer, bovine serum albumin), then rinsed with a fresh aliquot of wash buffer. Cells were incubated with 50 μl of primary antibodies monoclonal anti-human transglutaminase (IgG) obtained from Amersham (mouse) diluted 1:300 in wash buffer for one hour, 37° C. then rinsed two times with wash buffer. Cells were then incubated with 50 μl of secondary antibody (Feb fragment, peroxidase conjugated anti-mouse IgG obtaining from Amersham) diluted 1:200 in wash buffer for one hour at 37° C., then rinsed two times with wash buffer. Cells were incubated with substrate solution (4 mg o-phenylene diamine and 3.3 μl 30% H2 O2 in 10 ml 0.1M citrate buffer pH 5.0) for five minutes, R/T, in darkness (under aluminum foil). The reaction was stopped by the addition of 50 μl 4N […]. The absorbance of samples was read at 492 nm in the plate reader. Out of the six replicates, four were treated with both antibodies, two were treated only with the secondary antibody (i.e., to determine background binding of enzyme conjugated Ab). TGase levels were determined by subtracting background from the readings from each treatment and determining mean ±s.d. for the replicates exposed to both Ab.
The level of TGase-1 was normalized to DNA content of the cells in the same well thus eliminating variation due to differences in cell number. DNA quantitation is a particularly useful indicator of cell number, including keratinocyte cell number, because each cell has to all intents and purposes an identical genome and therefore an identical quantity of DNA. The total DNA content of a well of cells therefore is directly proportional to the cell number in that well. Quantitation of DNA was used to normalize the TGase data to cell number.
Keratinocytes were plated in 96 well plates at a density of 3,000 cells per well in […] media.

[2] = 2.5 × 10^-8 M, n = 3 (Examples 1-3)
[3] = Homo sapiens, Keratinocyte, 2.5 × 10^-7 M, n = 3, read-out: mean Thymidine incorp./μg protein (% control)
[4] = Homo sapiens, Keratinocyte, 2.5 × 10^-8 M, n = 3 (Examples 1-3), read-out: mean Thymidine incorp./μg protein (% control)
[5] = Homo sapiens, Keratinocyte, 2.5 × 10^-9 M, n = 3, read-out: mean Thymidine incorp./μg protein (% control)
[6] = 2.5 × 10^-7 M, normalized to DNA, 72 hours, n = 3
[7] = 2.5 × 10^-8 M, normalized to DNA, 72 hours, n = 3
[8] = 2.5 × 10^-9 M (ROH line printed 2.5 × 10^-0 M), normalized to DNA, 72 hours, n = 3
[9] = Homo sapiens, Keratinocyte, 72 h, 2.5 × 10^-7 M, normalized to DNA, 72 hours, n = 3, read-out: mean TGase/DNA (% control)
[10] = Homo sapiens, Keratinocyte, 72 h, 2.5 × 10^-8 M, normalized to DNA, 72 hours, n = 3, read-out: mean TGase/DNA (% control)
[11] = Homo sapiens, Keratinocyte, 72 h, 2.5 × 10^-9 M (ROH line printed 2.5 × 10^-0 M), normalized to DNA, 72 hours, n = 3, read-out: mean TGase/DNA (% control)
[12] = Example 4, 2.5 × 10^-8 M, n = 3
[13] = Homo sapiens, Keratinocyte, Example 4, 2.5 × 10^-8 M, n = 3, read-out: mean Thymidine incorp/μg protein (% control)
[14] = Homo sapiens, Keratinocyte, 72 h, Example 4, 2.5 × 10^-8 M, n = 3, read-out: mean TGase (% control)

SMILES	effect on keratinocyte proliferation (in words) (Human keratinocytes)	mean Thymidine incorp./μg protein ± s.d (Human keratinocytes; 2.5 × 10^-7 M, n = 3) [DPM/μg protein]	mean Thymidine incorp./μg protein ± s.d (Human keratinocytes; [2]) [DPM/μg protein]	mean Thymidine incorp./μg protein ± s.d (Human keratinocytes; 2.5 × 10^-9 M, n = 3) [DPM/μg protein]	activity at 0.25 µM (Human keratinocytes; [3]) [%]	activity at 0.025 µM (Human keratinocytes; [4]) [%]	activity at 0.0025 µM (Human keratinocytes; [5]) [%]	mean TGase/DNA × 10^-4 ± s.d [1, 6]	mean TGase/DNA × 10^-4 ± s.d [1, 7]	mean TGase/DNA × 10^-4 ± s.d [1, 8]	activity at 0.25 µM [1, 9] [%]	activity at 0.025 µM [1, 10] [%]	activity at 0.0025 µM [1, 11] [%]	mean Thymidine incorp/μg protein ± s.d (Human keratinocytes; [12]) [DPM/μg protein]	activity at 0.025 µM (Human keratinocytes; [13]) [%]	mean TGase ± s.d [1, 12]	activity at 0.025 µM [1, 14] [%]	effect on keratinocyte TGase level / differentiation (in words) [1]	also measured
CC1=C(/C=C/C(C)=C/C=C/C(C)=C/CO)C(C)(C)CCC1 [ROH, Retinol]	completely ineffective at increasing keratinocyte proliferation	2218 ± 73	2034 ± 46	1977 ± 19	106	97	94	1.14 ± 0.22 × 10^-4	1.89 ± 0.30 × 10^-4	2.70 ± 0.59 × 10^-4	47	77	> 100	–	–	–	–	–	mean Thymidine incorp./μg protein ± s.d (Human keratinocytes; 2.5 × 10^-7 M, n = 3, listed as Retinol): 2218 ± 79 DPM/μg protein; effect on keratinocyte TGase level / differentiation (in words) ([1]; listed as Retinol): significantly less effective than retinoic acid at inhibiting keratinocyte differentiation; effect on keratinocyte TGase level / differentiation (in words) ([1]; listed as retinol): The decrease in transglutaminase level was dose dependant for both retinoic acid and retinol
CC1=C(/C=C/C(C)=C/C=C/C(C)=C/C(=O)O)C(C)(C)CCC1 [RA, retinoic acid, reference compound]	–	2475 ± 116	2686 ± 72	2556 ± 80	118	128	122	0.16 ± 0.11 × 10^-4	1.34 ± 0.40 × 10^-4	1.87 ± 0.49 × 10^-4	7	55	77	3691 ± 205	106	0.155 ± 0.098	16	–	activation at 0.025 µM (Human keratinocytes; Homo sapiens, Keratinocyte, read-out: increase in keratinocyte thymidine incorporation over the 2.5×10^-8 M retinol treatment, Example 2, 2.5×10^-8 M): 28%; activation at 0.025 µM (Human keratinocytes; Homo sapiens, Keratinocyte, read-out: increase in keratinocyte thymidine incorporation over the 2.5×10^-8 M retinyl palmitate treatment, Example 4, 2.5×10^-8 M): 6%; activation at 0.025 µM (Human keratinocytes; Homo sapiens, Keratinocyte, read-out: increase in keratinocyte thymidine incorporation over the ethanol control, Example 2, 2.5×10^-8 M): 28%; activation at 0.025 µM (Human keratinocytes; Homo sapiens, Keratinocyte, read-out: increase in keratinocyte thymidine incorporation over the ethanol control, Example 4, 2.5×10^-8 M): 6%; effect on keratinocyte proliferation (in words) (Human keratinocytes; listed as Retinoic acid): increased keratinocyte proliferation; effect on keratinocyte proliferation (in words) (Human keratinocytes; listed as retinoic acid): significantly increased keratinocyte proliferation over both the ethanol control and each of the 2.5×10^-7 M, 2.5×10^-8 M and 2.5×10^-9 M retinol treatments and they did so in a dose dependant manner; mean TGase (% control) ([1]; Example 4, 2.5 × 10^-8 M, n = 3, 0.025 µM, 4320 min): 15%; effect on keratinocyte TGase level / differentiation (in words) ([1]; listed as Retinoic acid): decreased keratinocyte differentiation; effect on keratinocyte TGase level / differentiation (in words) ([1]; listed as retinoic acid): decreased keratinocyte TGase level over both the ethanol control and did so to a significantly greater extent than each of the corresponding 2.5×10^-7 M, 2.5×10^-8 M and 2.5×10^-9 M retinol treatments
CCCCCCCCCCCCCCCC(=O)OC/C=C(C)/C=C/C=C(C)/C=C/C1=C(C)CCCC1(C)C [Retinyl Palmitate (RP), retinyl palmitate]	completely ineffective at increasing keratinocyte proliferation	–	–	–	–	–	–	–	–	–	–	–	–	3386 ± 326	97	0.790 ± 0.387	79	significantly less effective than retinoic acid at inhibiting keratinocyte differentiation	–
CN1CCN(C)C1=O [Dimethyl imidazolidinone, 1,3-dimethyl-2-imidazolidinone]	had no effect on keratinocyte proliferation on its own; also recorded: exerts little or no benefit	–	–	–	–	–	–	–	–	–	–	–	–	–	–	–	–	had no effect on keratinocyte TG1 levels	mean Thymidine incorp/μg protein ± s.d (Human keratinocytes; 10^-6 M, n = 3): 1892 ± 119 DPM/μg protein; mean Thymidine incorp/μg protein ± s.d (Human keratinocytes; 10^-7 M, n = 3 (Example 3)): 2260 ± 166 DPM/μg protein; mean Thymidine incorp/μg protein ± s.d (Human keratinocytes; 10^-9 M, n = 3): 2003 ± 128 DPM/μg protein; mean Thymidine incorp/μg protein ± s.d (Human keratinocytes; Example 4, 10^-7 M, n = 3): 3214 ± 128 DPM/μg protein; activity at 1 µM (Human keratinocytes; Homo sapiens, Keratinocyte, 24 h, read-out: mean Thymidine incorp/μg protein (% control), 10^-6 M, 24 hours, n = 3): 90%; activity at 0.1 µM (Human keratinocytes; Homo sapiens, Keratinocyte, 24 h, read-out: mean Thymidine incorp/μg protein (% control), 10^-7 M, 24 hours, n = 3 (Example 3)): 108%; activity at 0.001 µM (Human keratinocytes; Homo sapiens, Keratinocyte, 24 h, read-out: mean Thymidine incorp/μg protein (% control), 10^-9 M, 24 hours, n = 3): 96%; activity at 0.1 µM (Human keratinocytes; Homo sapiens, Keratinocyte, 24 h, read-out: mean Thymidine incorp/μg protein (% control), Example 4, 10^-7 M, 24 hours, n = 3): 92%; mean TGase ± s.d ([1]; Example 4, 10^-8 M, n = 3): 0.990 ± 0.251; activity at 0.01 µM ([1]; Homo sapiens, Keratinocyte, 72 h, read-out: mean TGase (% control)): 99%
